Measured values: patent US12097215B2, “Antibacterial composition and its use in treating bacterial infections” (Vector Vitale IP LLC, priority 2017, dated 2024)
In brackets after ≈: the same amount, converted by molar mass.

Experiments:
Assay in all cases: MIC by serial dilutions in broth (visible growth)
P. aeruginosa ATCC 27853 = system: P. aeruginosa ATCC 27853
Procedure: (§1) The minimum inhibitory concentration (MIC) and minimum bactericidal concentration (MBC) of the antibacterial composition enriched for the light isotope zinc ^64Zne was evaluated in the experiment. […] S. aureus ATCC 25923, E. coli ATCC 25922 and P. aeruginosa ATCC 27853 were used as test cultures.
(§2) The studies were carried out using the method of serial dilutions in broth. To determine sensitivity of microorganisms to the antibacterial composition, 0.5 ml of broth was placed into each tube. The number of tubes was determined based on the desired number of dilutions and was increased by one for the “negative” control (no test composition). Series of two-fold serial dilutions of the test variants of the antibacterial composition were used and concentrations ranging from 450 mcg ^64Zne/ml to 0.000107 mcg ^64Zne/ml were obtained.
(§3) Reference test strains of S. aureus ATCC 25923, E. coli ATCC 25922 and P. aeruginosa ATCC 27853 were incubated in Mueller-Hinton liquid broth at 37° C. for 24 hours. Standard bacterial suspension equivalent to 0.5 McFarland standard diluted 100-fold with the broth was used for the inoculation of the tubes after which the concentration of microorganism in it was approximately 10^6 CFU/ml.
(§4) 0.5 ml of inoculum was added to each tube containing 0.5 ml of the appropriate dilution of a solution of the ^64Zn-enriched salt of interest. […] The final concentration of the microorganism in each tube was approximately 5×10^5 CFU/ml.
(§5) The tubes were incubated at 35° C. in air for 16-20 or 20-24 hours (depending on the bacterial strain).
(§6) To determine the presence of microorganism growth the test tubes with inoculum were viewed under transmitted light. Transmitted light was measured by spectrophotometry. The growth of culture in the presence of antibacterial compositions based on ^64Zne was compared with the reference test tube (“negative” control), containing the original inoculum and stored in the refrigerator. The MIC was determined as the lowest concentration of ^64Zne that inhibits visible growth of the microorganism. Both gram-positive (S. aureus) and gram-negative bacteria (P. aeruginosa, E. coli) were used in the experiments described below.
(§7) That is, ^64Zne in the form of a salt was compared with a composition that contains zinc with a natural distribution of isotopes. […] Relevant samples containing salt of natural zinc with EDDA and natural zinc sulfate were used for the comparison.
(§8) The following commercial antibacterial medications were used for the study: azithromycin and ceftriaxone and norfloxacin. The initial concentration of 3000 mcg/ml was used for the samples of all the above compounds. […] Serial dilutions of the above antibacterial compounds were also prepared in the same way as for the antibacterial composition of the invention. The same pathogenic strains of S. aureus ATCC 25923, E. coli ATCC 25922, P. aeruginosa ATCC 27853 were used for the study.

E. coli ATCC 25922 = assay type: cell-based
Procedure: as §1, §2, §3, §4, §5, §6, §7, §8

S. aureus ATCC 25923 = assay type: cell-based
Procedure: as §1, §2, §3, §4, §5, §6, §7, §8

`NC(CC(=O)O)C(=O)O` (stereo not shown) [^64Zne aspartate] was tested, and the “bacteriostatic activity (in words)” value (P. aeruginosa ATCC 27853) was “best results”, the MIC (P. aeruginosa ATCC 27853; Pseudomonas aeruginosa, ATCC27853) was 0.732 µg/mL (≈ 5.5 µM) and the MIC (E. coli ATCC 25922; Escherichia coli, ATCC25922, concentration of ^64Zne, Tables 1-5, read-out: MIC) was 0.0229 µg/mL (≈ 0.172 µM). For the same compound, the visible growth (E. coli ATCC 25922; ^64Zne 0.00018 mcg/ml) was “+”, the visible growth (E. coli ATCC 25922; ^64Zne 0.00036 mcg/ml) was “+” and the visible growth (E. coli ATCC 25922; ^64Zne 0.00072 mcg/ml) was “+”. For the same compound, the visible growth (E. coli ATCC 25922; ^64Zne 0.0014 mcg/ml) was “+”, the visible growth (E. coli ATCC 25922; ^64Zne 0.0029 mcg/ml) was “+” and the visible growth (E. coli ATCC 25922; ^64Zne 0.0057 mcg/ml) was “+”. For the same compound, the visible growth (E. coli ATCC 25922; ^64Zne 0.011 mcg/ml) was “+”, the visible growth (E. coli ATCC 25922; ^64Zne 0.023 mcg/ml) was “−” and the visible growth (E. coli ATCC 25922; ^64Zne 0.046 mcg/ml) was “−”. For the same compound, the visible growth (E. coli ATCC 25922; ^64Zne 0.092 mcg/ml) was “−”, the visible growth (E. coli ATCC 25922; ^64Zne 0.18 mcg/ml) was “−” and the visible growth (E. coli ATCC 25922; ^64Zne 0.37 mcg/ml) was “−”. For the same compound, the visible growth (E. coli ATCC 25922; ^64Zne 0.73 mcg/ml) was “−”, the visible growth (E. coli ATCC 25922; ^64Zne 1.46 mcg/ml) was “−” and the visible growth (E. coli ATCC 25922; ^64Zne 2.93 mcg/ml) was “−”. The visible growth (E. coli ATCC 25922; ^64Zne 5.86 mcg/ml) was “−”, the visible growth (E. coli ATCC 25922; ^64Zne 11.72 mcg/ml) was “−” and the visible growth (E. coli ATCC 25922; ^64Zne 23.44 mcg/ml) was “−”. For the same compound, the visible growth (E. coli ATCC 25922; ^64Zne 46.88 mcg/ml) was “−”, the visible growth (E. coli ATCC 25922; ^64Zne 93.75 mcg/ml) was “−” and the visible growth (E. coli ATCC 25922; ^64Zne 187.5 mcg/ml) was “−”. The visible growth (E. coli ATCC 25922; ^64Zne 375 mcg/ml) was “−”, the visible growth (E. coli ATCC 25922; ^64Zne 750 mcg/ml) was “−” and the MIC (S. aureus ATCC 25923; Staphylococcus aureus, ATCC25923, concentration of ^64Zne, Tables 1-5, read-out: MIC) was 0.0057 µg/mL (≈ 0.0428 µM). The visible growth (S. aureus ATCC 25923; ^64Zne 0.00018 mcg/ml) was “+”, the visible growth (S. aureus ATCC 25923; ^64Zne 0.00036 mcg/ml) was “+” and the visible growth (S. aureus ATCC 25923; ^64Zne 0.00072 mcg/ml) was “+”. The visible growth (S. aureus ATCC 25923; ^64Zne 0.0014 mcg/ml) was “+”, the visible growth (S. aureus ATCC 25923; ^64Zne 0.0029 mcg/ml) was “+” and the visible growth (S. aureus ATCC 25923; ^64Zne 0.0057 mcg/ml) was “−”. For the same compound, the visible growth (S. aureus ATCC 25923; ^64Zne 0.011 mcg/ml) was “−”, the visible growth (S. aureus ATCC 25923; ^64Zne 0.023 mcg/ml) was “−” and the visible growth (S. aureus ATCC 25923; ^64Zne 0.046 mcg/ml) was “−”. For the same compound, the visible growth (S. aureus ATCC 25923; ^64Zne 0.092 mcg/ml) was “−”, the visible growth (S. aureus ATCC 25923; ^64Zne 0.18 mcg/ml) was “−” and the visible growth (S. aureus ATCC 25923; ^64Zne 0.37 mcg/ml) was “−”. The visible growth (S. aureus ATCC 25923; ^64Zne 0.73 mcg/ml) was “−”, the visible growth (S. aureus ATCC 25923; ^64Zne 1.46 mcg/ml) was “−” and the visible growth (S. aureus ATCC 25923; ^64Zne 2.93 mcg/ml) was “−”. The visible growth (S. aureus ATCC 25923; ^64Zne 5.86 mcg/ml) was “−”, the visible growth (S. aureus ATCC 25923; ^64Zne 11.72 mcg/ml) was “−” and the visible growth (S. aureus ATCC 25923; ^64Zne 23.44 mcg/ml) was “−”. The visible growth (S. aureus ATCC 25923; ^64Zne 46.88 mcg/ml) was “−”, the visible growth (S. aureus ATCC 25923; ^64Zne 93.75 mcg/ml) was “−” and the visible growth (S. aureus ATCC 25923; ^64Zne 187.5 mcg/ml) was “−”. The visible growth (S. aureus ATCC 25923; ^64Zne 375 mcg/ml) was “−”.
